# Assays:
# [1] = test system: Arabidopsis cell suspension culture; settings: phosphate starvation 32 hours then aphidicolin, cited from earlier work
# [2] = test system: Arabidopsis cell suspension culture MM1; assay: Aphidicolin block/release of MM1: mitotic index (DAPI) and labelling index (BrdU); type: cell-based, Arabidopsis thaliana
# Method: Arabidopsis cell suspension culture MM1 (DSM 13563) was used for synchronisation experiments. The suspension culture was maintained by sub-culturing weekly 10 ml into 200 ml of fresh MSS-medium (MS-salt, 3% sucrose, 0.5 mg/l NAA, 0.05 mg/l kinetin) which is cultured in 500 ml narrow neck Erlenmeyer flasks, of which the opening is covered with double layer of aluminium foil and loosely covered with Saran wrap and which are placed on a GYROTORY® Shaker (New Brunswick Scientific). The cell suspension culture was grown under continuous light conditions (24 hrs a day); Philips lamps were used with the specification TLD HF 50W/840; light level is in average 1300 Lux and the cell suspension culture is rotated at 120 rpm at a temperature varying between 23-25° C. To arrest cells reversibly in late G1/early S-phase, cells were blocked with aphidicolin according to Nagata et al. 1992 (with slight modifications), 40 ml of an early stationary phase cell suspension culture was subcultured into 200 ml MSS-medium, 4.16 μg/ml aphidicolin was added to block cells at the end of G1/early S-phase, and the culture was incubated at 23° C., 120 rpm in the conditions as described above for MM1, for a period of 21.5 hrs. To remove aphidicolin, cells were washed through a nylon mesh (mesh size 47 μm) with 11 MSS-medium by vigorously shaking and resuspended in MSS-medium. The cells were vigorously shaken, for a washing time of about 14 min, and then centrifuged at 150Orpm for 1 min (387 rcf) with the brake switched off.
# CycD2 = assay: Northern expression analysis after aphidicolin synchronisation of MM1 (maximum signal = 100%); type: cell-based, Arabidopsis thaliana
# Method: (§1) was analysed following the expression level of known cell cycle regulated genes. Synchronisation was performed as described in Example 2A, with the exception that two 7-day old cultures of the weekly sub-cultured cell suspension (210 ml each) were combined. 40 ml of combined culture was transferred into 200 ml of fresh MSS-medium in each of 10 separate flasks. After incubation for 24 hrs under conditions as described in Example 1, in the presence of 4.16 μg/ml aphidicolin, cells from 5 pooled flasks were washed through a nylon net (mesh size 47 μm) and washed with 2 litre MSS medium and shaken vigorously to remove the aphidicolin. Cells were transferred into a 50 ml plastic tube, washed again with MSS medium and centrifuged at 2500 rpm for 1 min (1075 rcf). Cells were resuspended and combined with the cells from the other 5 flasks similarly washed in a total volume of 300 ml fresh MSS-medium. 30 ml of this cell suspension was then added to 200 ml fresh MSS-medium in each of 10 separate flasks.
# (§2) 1) 25 ml for Northern blot (transferred into 50 ml plastic tube, centrifuged at 2500 rpm for 1 min, the supernatant discarded, and the cell pellet shock-frozen in liquid nitrogen before storing in −80° C. freezer)
# (§3) Samples were collected at the time point indicated (time of removal of aphidicolin equals time point 0 hrs) and were analysed for expression of the following genes by Northern blot:
# (§4) For each probe the maximum hybridisation signal obtained was defined as 100%.
# CycB1 = assay: as above; type: cell-based, Arabidopsis thaliana
# Method: as §1, §2, §3, §4
# [3] = range seen on blocking the cells with aphidicolin
# [4] = this experiment (Example 2A), after release from aphidicolin block
# [5] = 0 hrs after aphidicolin removal
# [6] = 2 hrs after aphidicolin removal
# [7] = 4 hrs after aphidicolin removal
# [8] = 6 hrs after aphidicolin removal
# [9] = 8 hrs after aphidicolin removal
# [10] = 10 hrs after aphidicolin removal
# [11] = 12 hrs after aphidicolin removal
# [12] = 14 hrs after aphidicolin removal
# [13] = 16 hrs after aphidicolin removal
# [14] = 18 hrs after aphidicolin removal
# [15] = 20 hrs after aphidicolin removal
# [16] = 22 hrs after aphidicolin removal
# [17] = 24 hrs after aphidicolin removal
# [18] = 26 hrs after aphidicolin removal
# [19] = 28 hrs after aphidicolin removal
# [20] = 30 hrs after aphidicolin removal
structure (smiles),measurement,setting,value
C[C@@]1(CO)[C@H](O)CC[C@@]2(C)[C@H]1CC[C@H]1C[C@@H]3C[C@@]12CC[C@]3(O)CO [aphidicolin],cells in S-phase,[1]; 2 h after release of block,50 to 60%
same,cells in G2 phase,[1]; after 8 h,50%
same,Labelling Index (%),[2]; 1 h after aphidicolin removal,23.21%
same,Mitotic index (%),[2]; 1 h after aphidicolin removal,0%
same,Labelling Index (%),[2]; 2 h after aphidicolin removal,41.3%
same,Mitotic index (%),[2]; 2 h after aphidicolin removal,0.5%
same,Labelling Index (%),[2]; 3 h after aphidicolin removal,65.06%
same,Mitotic index (%),[2]; 3 h after aphidicolin removal,0.58%
same,Labelling Index (%),[2]; 4 h after aphidicolin removal,64.13%
same,Mitotic index (%),[2]; 4 h after aphidicolin removal,0.5%
same,Labelling Index (%),[2]; 5 h after aphidicolin removal,50%
same,Mitotic index (%),[2]; 5 h after aphidicolin removal,0.68%
same,Labelling Index (%),[2]; 6 h after aphidicolin removal,18.43%
same,Mitotic index (%),[2]; 6 h after aphidicolin removal,1.88%
same,Labelling Index (%),[2]; 7 h after aphidicolin removal,13.67%
same,Mitotic index (%),[2]; 7 h after aphidicolin removal,2.37%
same,Labelling Index (%),[2]; 8 h after aphidicolin removal,10.32%
same,Mitotic index (%),[2]; 8 h after aphidicolin removal,2.04%
same,Labelling Index (%),[2]; 9 h after aphidicolin removal,8.1%
same,Mitotic index (%),[2]; 9 h after aphidicolin removal,2.63%
same,Labelling Index (%),[2]; 10 h after aphidicolin removal,7.86%
same,Mitotic index (%),[2]; 10 h after aphidicolin removal,2.84%
same,Labelling Index (%),[2]; 11 h after aphidicolin removal,7.65%
same,Mitotic index (%),[2]; 11 h after aphidicolin removal,5.06%
same,Labelling Index (%),[2]; 12 h after aphidicolin removal,6.8%
same,Mitotic index (%),[2]; 12 h after aphidicolin removal,7.96%
same,Labelling Index (%),[2]; 13 h after aphidicolin removal,3.08%
same,Mitotic index (%),[2]; 13 h after aphidicolin removal,11.67%
same,Labelling Index (%),[2]; 14 h after aphidicolin removal,5.05%
same,Mitotic index (%),[2]; 14 h after aphidicolin removal,9.03%
same,Labelling Index (%),[2]; 15 h after aphidicolin removal,3.68%
same,Mitotic index (%),[2]; 15 h after aphidicolin removal,7.86%
same,Labelling Index (%),[2]; 16 h after aphidicolin removal,4.09%
same,Mitotic index (%),[2]; 16 h after aphidicolin removal,5%
same,Labelling Index (%),[2]; 17 h after aphidicolin removal,9.46%
same,Mitotic index (%),[2]; 17 h after aphidicolin removal,2.96%
same,Labelling Index (%),[2]; 18 h after aphidicolin removal,12.96%
same,Mitotic index (%),[2]; 18 h after aphidicolin removal,3.24%
same,Labelling Index (%),[2]; 19 h after aphidicolin removal,10.91%
same,Mitotic index (%),[2]; 19 h after aphidicolin removal,2.06%
same,MI peak,[2]; [3],10 to 15%
same,labelling index,[2]; [3],50-65%
same,LI peak,[2]; [4],65%
same,MI peak,[2]; [4],12%
same,CycD2 %,CycD2; [5],11.06%
same,CycD2 Band intensity,CycD2; [5],588
same,CycD2 %,CycD2; [6],18.49%
same,CycD2 Band intensity,CycD2; [6],984
same,CycD2 %,CycD2; [7],14.53%
same,CycD2 Band intensity,CycD2; [7],773
same,CycD2 %,CycD2; [8],20.73%
same,CycD2 Band intensity,CycD2; [8],1103
same,CycD2 %,CycD2; [9],21.64%
same,CycD2 Band intensity,CycD2; [9],1151
same,CycD2 %,CycD2; [10],32.02%
same,CycD2 Band intensity,CycD2; [10],1704
same,CycD2 %,CycD2; [11],51.04%
same,CycD2 Band intensity,CycD2; [11],2716
same,CycD2 %,CycD2; [12],77.14%
same,CycD2 Band intensity,CycD2; [12],4105
same,CycD2 %,CycD2; [13],66.51%
same,CycD2 Band intensity,CycD2; [13],3539
same,CycD2 %,CycD2; [14],100.0%
same,CycD2 Band intensity,CycD2; [14],5322
same,CycD2 %,CycD2; [15],83.89%
same,CycD2 Band intensity,CycD2; [15],4464
same,CycD2 %,CycD2; [16],46.62%
same,CycD2 Band intensity,CycD2; [16],2481
same,CycD2 %,CycD2; [17],64.44%
same,CycD2 Band intensity,CycD2; [17],3429
same,CycD2 %,CycD2; [18],68.56%
same,CycD2 Band intensity,CycD2; [18],3648
same,CycD2 %,CycD2; [19],69.98%
same,CycD2 Band intensity,CycD2; [19],3724
same,CycD2 %,CycD2; [20],62.66%
same,CycD2 Band intensity,CycD2; [20],3334
same,cycB1 %,CycB1; [5],33.18%
same,cycB1 Band intensity,CycB1; [5],636
same,cycB1 %,CycB1; [6],62.69%
same,cycB1 Band intensity,CycB1; [6],1201
same,cycB1 %,CycB1; [7],47.09%
same,cycB1 Band intensity,CycB1; [7],902
same,cycB1 %,CycB1; [8],59.67%
same,cycB1 Band intensity,CycB1; [8],1143
same,cycB1 %,CycB1; [9],69.42%
same,cycB1 Band intensity,CycB1; [9],1330
same,cycB1 %,CycB1; [10],83.86%
same,cycB1 Band intensity,CycB1; [10],1607
same,cycB1 %,CycB1; [11],89.57%
same,cycB1 Band intensity,CycB1; [11],1717
same,cycB1 %,CycB1; [12],100.0%
same,cycB1 Band intensity,CycB1; [12],1917
same,cycB1 %,CycB1; [13],76.51%
same,cycB1 Band intensity,CycB1; [13],1466
same,cycB1 %,CycB1; [14],90.81%
same,cycB1 Band intensity,CycB1; [14],1740
same,cycB1 %,CycB1; [15],77.04%
same,cycB1 Band intensity,CycB1; [15],1476
same,cycB1 %,CycB1; [16],45.09%
same,cycB1 Band intensity,CycB1; [16],864
same,cycB1 %,CycB1; [17],48.70%
same,cycB1 Band intensity,CycB1; [17],933
same,cycB1 %,CycB1; [18],49.18%
same,cycB1 Band intensity,CycB1; [18],942
same,cycB1 %,CycB1; [19],52.79%
same,cycB1 Band intensity,CycB1; [19],1012

# — patent US20040014215A1, “Synchronised arabidopsis cell suspensions and uses thereof” (priority 2000, published 2004)
